From US4287206A, “Halogen derivatives of 8-hydroxycarboxylic acids; the processes for their preparation and medicaments in which they are present” (priority 1978, dated 1981)

What was measured:
mice [1] = test: Sleep induced by pentobarbital in mice; type: in vivo; conditions: pentobarbital 50 mg.kg^-1 i.p.
Procedure: (b) Absence of modification of the effects of pentobarbital
At time 0, the mice receive, by intraperitoneal or oral administration, distilled water or the medicament according to the invention, obtained in accordance with Example I. After 30 minutes, they receive pentobarbital (50 mg.kg^-1) by intraperitoneal administration.

mice [2] = test: Anti-reserpine activity in mice (reserpine hypothermia); type: in vivo; conditions: reserpine 2.5 mg.kg^-1 i.p. 4 h before
Procedure: Anti-reserpine activity in mice
At time 0, the mice receive reserpine (2.5 mg.kg^-1) by intraperitoneal administration.
After 4 hours, when the hypothermia is significant (30 to 31°C.), the substance to be studied is administered intraperitoneally or orally. The rectal temperature is measured, using a probe, carrying a thermoelectric couple, inserted to a constant depth, every 30 minutes for 2 hours.

Structure (SMILES): CC1CC(c2ccc(Cl)cc2)C(c2ccccc2)C(=O)O1 (stereo not drawn) [Example I, trans-4-(4'-chlorophenyl)-6-methyl-3-phenyl-3,4,5,6-tetrahydropyrone-2]
- Time in minutes for induction of sleep (mice [1]; 8 mg/kg intraperitoneal): 4 min
- Time in minutes of sleep (mice [1]; 8 mg/kg intraperitoneal): 36 ± 3 min
- % of mice which have slept (mice [1]; 8 mg/kg oral): 100%
- Time in minutes for induction of sleep (mice [1]; 8 mg/kg oral): 4 min
- Time in minutes of sleep (mice [1]; 8 mg/kg oral): 57 ± 10 min
- % of mice which have slept (mice [1]; 16 mg/kg intraperitoneal): 83%
- Time in minutes for induction of sleep (mice [1]; 16 mg/kg intraperitoneal): 4.5 min
- Time in minutes of sleep (mice [1]; 16 mg/kg intraperitoneal): 26 ± 7 min
- % of mice which have slept (mice [1]; 16 mg/kg oral): 100%
- Time in minutes for induction of sleep (mice [1]; 16 mg/kg oral): 4 min
- Time in minutes of sleep (mice [1]; 16 mg/kg oral): 41 ± 7 min
- % of mice which have slept (mice [1]; 32 mg/kg intraperitoneal): 92%
- Time in minutes for induction of sleep (mice [1]; 32 mg/kg intraperitoneal): 4.5 min
- Time in minutes of sleep (mice [1]; 32 mg/kg intraperitoneal): 27 ± 3 min
- % of mice which have slept (mice [1]; 32 mg/kg oral): 100%
- Time in minutes for induction of sleep (mice [1]; 32 mg/kg oral): 4 min
- Time in minutes of sleep (mice [1]; 32 mg/kg oral): 49 ± 4 min
- % of mice which have slept (mice [1]; 64 mg/kg intraperitoneal): 100%
- Time in minutes for induction of sleep (mice [1]; 64 mg/kg intraperitoneal): 4 min
- Time in minutes of sleep (mice [1]; 64 mg/kg intraperitoneal): 30 ± 9 min
- % of mice which have slept (mice [1]; 64 mg/kg oral): 100%
- Time in minutes for induction of sleep (mice [1]; 64 mg/kg oral): 5 min
- Time in minutes of sleep (mice [1]; 64 mg/kg oral): 29 ± 8 min
- % of mice which have slept (mice [1]; 128 mg/kg intraperitoneal): 83%
- Time in minutes for induction of sleep (mice [1]; 128 mg/kg intraperitoneal): 6 min
- Time in minutes of sleep (mice [1]; 128 mg/kg intraperitoneal): 25 ± 5 min
- % of mice which have slept (mice [1]; 128 mg/kg oral): 100%
- Time in minutes for induction of sleep (mice [1]; 128 mg/kg oral): 4 min
- Time in minutes of sleep (mice [1]; 128 mg/kg oral): 38 ± 7 min
- Rectal temperatures °C. ± SD (mice [2]; Table IIa, 4 mg/kg oral, 30 min): 30.6 ± 0.39 °C
- Rectal temperatures °C. ± SD (mice [2]; Table IIa, 4 mg/kg oral, 60 min): 30.6 ± 0.45 °C
- Rectal temperatures °C. ± SD (mice [2]; Table IIa, 4 mg/kg oral, 90 min): 30.7 ± 0.59 °C
- Rectal temperatures °C. ± SD (mice [2]; Table IIa, 4 mg/kg oral, 120 min): 30.4 ± 0.67 °C
- Rectal temperatures °C. ± SD (mice [2]; Table IIa, 8 mg/kg oral, 30 min): 31.1 ± 0.36 °C
- Rectal temperatures °C. ± SD (mice [2]; Table IIa, 8 mg/kg oral, 60 min): 31.4 ± 0.56 °C
- Rectal temperatures °C. ± SD (mice [2]; Table IIa, 8 mg/kg oral, 90 min): 31.5 ± 0.57 °C
- Rectal temperatures °C. ± SD (mice [2]; Table IIa, 8 mg/kg oral, 120 min): 31.3 ± 0.56 °C
- Rectal temperatures °C. ± SD (mice [2]; Table IIa, 16 mg/kg oral, 30 min): 31.4 ± 0.41 °C
- Rectal temperatures °C. ± SD (mice [2]; Table IIa, 16 mg/kg oral, 60 min): 32.6 ± 0.56 °C
- Rectal temperatures °C. ± SD (mice [2]; Table IIa, 16 mg/kg oral, 90 min): 32.8 ± 0.53 °C
- Rectal temperatures °C. ± SD (mice [2]; Table IIa, 16 mg/kg oral, 120 min): 32.8 ± 0.45 °C
- Rectal temperatures °C. ± SD (mice [2]; Table IIa, 32 mg/kg oral, 30 min): 31.4 ± 0.31 °C
- Rectal temperatures °C. ± SD (mice [2]; Table IIa, 32 mg/kg oral, 60 min): 32.6 ± 0.44 °C
- Rectal temperatures °C. ± SD (mice [2]; Table IIa, 32 mg/kg oral, 90 min): 32.9 ± 0.41 °C
- Rectal temperatures °C. ± SD (mice [2]; Table IIa, 32 mg/kg oral, 120 min): 32.8 ± 0.38 °C
- Rectal temperatures °C. ± SD (mice [2]; Table IIa, 64 mg/kg oral, 30 min): 33.8 ± 0.58 °C
- Rectal temperatures °C. ± SD (mice [2]; Table IIa, 64 mg/kg oral, 60 min): 34.5 ± 0.33 °C
- Rectal temperatures °C. ± SD (mice [2]; Table IIa, 64 mg/kg oral, 90 min): 34.4 ± 0.39 °C
- Rectal temperatures °C. ± SD (mice [2]; Table IIa, 64 mg/kg oral, 120 min): 34.4 ± 0.35 °C
- Rectal temperatures °C. ± SD (mice [2]; Table IIa, 128 mg/kg oral, 30 min): 33.1 ± 0.56 °C
- Rectal temperatures °C. ± SD (mice [2]; Table IIa, 128 mg/kg oral, 60 min): 34.1 ± 0.56 °C
- Rectal temperatures °C. ± SD (mice [2]; Table IIa, 128 mg/kg oral, 90 min): 34.3 ± 0.58 °C
- Rectal temperatures °C. ± SD (mice [2]; Table IIa, 128 mg/kg oral, 120 min): 34.2 ± 0.53 °C
- Rectal temperatures °C. ± SD (mice [2]; Table IIa, 256 mg/kg oral, 30 min): 33.5 ± 0.47 °C
- Rectal temperatures °C. ± SD (mice [2]; Table IIa, 256 mg/kg oral, 60 min): 35.2 ± 0.15 °C
- Rectal temperatures °C. ± SD (mice [2]; Table IIa, 256 mg/kg oral, 90 min): 35.3 ± 0.34 °C
- Rectal temperatures °C. ± SD (mice [2]; Table IIa, 256 mg/kg oral, 120 min): 35.1 ± 0.33 °C
- Rectal temperatures °C. ± SD (mice [2]; 4 mg/kg intraperitoneal, 30 min): 32.7 ± 0.56 °C
- Rectal temperatures °C. ± SD (mice [2]; 4 mg/kg intraperitoneal, 60 min): 33.7 ± 0.47 °C
- Rectal temperatures °C. ± SD (mice [2]; 4 mg/kg intraperitoneal, 90 min): 33.1 ± 0.39 °C
- Rectal temperatures °C. ± SD (mice [2]; 4 mg/kg intraperitoneal, 120 min): 32.2 ± 0.46 °C
- Rectal temperatures °C. ± SD (mice [2]; 8 mg/kg intraperitoneal, 30 min): 33.1 ± 0.32 °C
- Rectal temperatures °C. ± SD (mice [2]; 8 mg/kg intraperitoneal, 60 min): 34.1 ± 0.24 °C
- Rectal temperatures °C. ± SD (mice [2]; 8 mg/kg intraperitoneal, 90 min): 34.0 ± 0.38 °C
- Rectal temperatures °C. ± SD (mice [2]; 8 mg/kg intraperitoneal, 120 min): 33.6 ± 0.49 °C
- Rectal temperatures °C. ± SD (mice [2]; 16 mg/kg intraperitoneal, 30 min): 35.3 ± 0.51 °C
- Rectal temperatures °C. ± SD (mice [2]; 16 mg/kg intraperitoneal, 60 min): 35.7 ± 0.34 °C
- Rectal temperatures °C. ± SD (mice [2]; 16 mg/kg intraperitoneal, 90 min): 35.3 ± 0.37 °C
- Rectal temperatures °C. ± SD (mice [2]; 16 mg/kg intraperitoneal, 120 min): 35.0 ± 0.44 °C
- Rectal temperatures °C. ± SD (mice [2]; 32 mg/kg intraperitoneal, 30 min): 34.8 ± 0.48 °C
- Rectal temperatures °C. ± SD (mice [2]; 32 mg/kg intraperitoneal, 60 min): 36.2 ± 0.38 °C
- Rectal temperatures °C. ± SD (mice [2]; 32 mg/kg intraperitoneal, 90 min): 35.6 ± 0.38 °C
- Rectal temperatures °C. ± SD (mice [2]; 32 mg/kg intraperitoneal, 120 min): 35.7 ± 0.37 °C
